Data on 14 compounds can be found in ChEMBL document CHEMBL1143536, “QSAR analyses of conformationally restricted 1,5-diaryl pyrazoles as selective COX-2 inhibitors: application of connection table representation of ligands” (Bioorg Med Chem Lett, 2005).

SMILES strings stand for the structures.

Test [1] has as its target T1, Prostaglandin G/H synthase 2 (Homo sapiens, UniProt P35354).
T1 sequence (P35354 whole entry): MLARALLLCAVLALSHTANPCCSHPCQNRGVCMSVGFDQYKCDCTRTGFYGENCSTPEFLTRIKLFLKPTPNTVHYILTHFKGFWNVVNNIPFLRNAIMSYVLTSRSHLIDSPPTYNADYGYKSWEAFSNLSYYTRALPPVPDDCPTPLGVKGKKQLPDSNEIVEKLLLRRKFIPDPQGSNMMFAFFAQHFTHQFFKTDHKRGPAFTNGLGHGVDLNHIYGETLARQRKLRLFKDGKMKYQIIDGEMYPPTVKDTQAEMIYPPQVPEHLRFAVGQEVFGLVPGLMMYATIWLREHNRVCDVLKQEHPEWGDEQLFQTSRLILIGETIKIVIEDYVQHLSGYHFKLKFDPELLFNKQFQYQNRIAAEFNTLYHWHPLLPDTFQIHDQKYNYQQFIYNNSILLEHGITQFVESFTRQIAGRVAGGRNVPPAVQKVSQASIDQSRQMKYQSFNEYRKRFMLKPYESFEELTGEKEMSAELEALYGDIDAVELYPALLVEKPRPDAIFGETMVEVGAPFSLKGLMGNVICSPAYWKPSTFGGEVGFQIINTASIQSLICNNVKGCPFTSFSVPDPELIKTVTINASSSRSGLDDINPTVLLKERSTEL
Kind of test: In vitro inhibitory concentration against Prostaglandin G/H synthase 2 (COX-2).

A short description of test [2]: Ratio of inhibitory concentration against prostaglandin G/H synthase 1 to that of prostaglandin G/H synthase 2.
A short description of test [3]: In vitro inhibitory concentration against Prostaglandin G/H synthase 1 (COX-1).

By IC50 is commonly meant the point on the concentration scale where inhibition reaches its midpoint. For the compound `COc1ccc2c(c1F)CSc1c(C(F)F)nn(-c3ccc(S(N)(=O)=O)cc3)c1-2`, the IC50 in test [1] was 32.4 nM.

Take `Cc1ccc2c(c1)CSc1c(C(F)(F)F)nn(-c3ccc(S(N)(=O)=O)cc3)c1-2`: the Ratio in test [2] is 1.56. The “Log IC50” value in test [3] is given as -6.1.

For `NS(=O)(=O)c1ccc(-n2nc(C(F)(F)F)c3c2-c2ccccc2CS3)cc1`, the Ratio in test [2] stood at 1.3. The “Log IC50” value in test [3] is given as -6.4.

As for `NS(=O)(=O)c1ccc(-n2nc(C(F)(F)F)c3c2-c2ccccc2OC3)cc1`, in test [2], the Ratio amounted to 0.72. In addition, in test [3], the “Log IC50” value is recorded as -5.15.

With `COc1ccc2c(c1)CSc1c(C(F)(F)F)nn(-c3ccc(S(N)(=O)=O)cc3)c1-2`, the Ratio in test [2] is 1.36. For the same compound, the “Log IC50” value in test [3] is -6.52.

Take `NS(=O)(=O)c1ccc(-n2nc(C(F)(F)F)c3c2-c2ccc(F)c(F)c2CS3)cc1`: the Ratio in test [2] amounted to 2.58. This compound showed an IC50 in test [1] of 6.03 nM. The “Log IC50” value in test [3] is recorded as -5.57.

Take `Cc1ccc2c(c1F)CSc1c(C(F)(F)F)nn(-c3ccc(S(N)(=O)=O)cc3)c1-2`: the Ratio in test [2] came to 2.84. In test [1], the IC50 is 15.8 nM. The “Log IC50” value in test [3] is reported as -4.95.

Regarding `N#Cc1nn(-c2ccc(S(N)(=O)=O)cc2)c2c1SCc1cc(F)ccc1-2`, the Ratio in test [2] was 0.7. In test [3], the “Log IC50” value is listed as -6.12.

For the compound `NS(=O)(=O)c1ccc(-n2nc(C(F)(F)F)c3c2-c2ccc(F)cc2CS3)cc1`, in test [2], the Ratio stood at 0.84. The “Log IC50” value in test [3] is given as -6.57.

On to `COc1ccc2c(c1F)C[S+]([O-])c1c(C(F)(F)F)nn(-c3ccc(S(N)(=O)=O)cc3)c1-2` (stereo not drawn), for which the IC50 in test [1] was 1510 nM.

For `NS(=O)(=O)c1ccc(-n2nc(C(F)(F)F)c3c2-c2cccc(F)c2CS3)cc1`, the Ratio in test [2] amounted to 2.47. Further, the IC50 in test [1] was 20.9 nM. Also, the “Log IC50” value in test [3] was -5.2.

`COc1ccc2c(c1F)CSc1c(C(F)(F)F)nn(-c3ccc(S(N)(=O)=O)cc3)c1-2`: the Ratio in test [2] stood at 2.48. Moreover, 8.91 nM corresponded to half-maximal inhibition in test [1] (IC50). The “Log IC50” value in test [3] is given as -5.56.

On to `NS(=O)(=O)c1ccc(-n2nc(C(F)(F)F)c3c2-c2ccccc2SC3)cc1`, for which the “Log IC50” value in test [3] is -5.01.

In the case of `COc1ccc2c(c1F)CSc1c(C(F)(F)F)nn(-c3ccc(S(C)(=O)=O)cc3)c1-2`, the IC50 in test [1] is 75.9 nM. That is a double-digit nanomolar value.
